Data on two compounds can be found in ChEMBL document CHEMBL1914417 (Bioorg Med Chem Lett, 2011).

Assay [1] concerns the target T1, Muscarinic acetylcholine receptor M1 (Rattus norvegicus, UniProt P08482).
T1 sequence (P08482 whole entry): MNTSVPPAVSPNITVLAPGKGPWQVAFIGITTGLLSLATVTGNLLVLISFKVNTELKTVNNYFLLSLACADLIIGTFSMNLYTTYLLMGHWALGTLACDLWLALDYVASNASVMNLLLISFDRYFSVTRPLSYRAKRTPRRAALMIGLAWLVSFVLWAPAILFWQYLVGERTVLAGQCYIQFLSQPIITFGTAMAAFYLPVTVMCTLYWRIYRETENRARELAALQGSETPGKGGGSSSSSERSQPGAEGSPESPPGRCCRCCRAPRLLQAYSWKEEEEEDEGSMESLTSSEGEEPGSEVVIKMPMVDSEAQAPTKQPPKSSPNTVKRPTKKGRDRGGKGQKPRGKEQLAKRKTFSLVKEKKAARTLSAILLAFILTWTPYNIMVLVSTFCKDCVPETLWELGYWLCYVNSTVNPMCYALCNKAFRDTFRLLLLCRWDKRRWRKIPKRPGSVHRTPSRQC
The experiment in a line: Agonist activity at rat muscarinic M1 receptor expressed in CHO cells. In kind it is functional, cell-based.

The target of assay [2] is T2, Muscarinic acetylcholine receptor M2 (Rattus norvegicus, UniProt P10980).
T2 sequence (P10980 whole entry): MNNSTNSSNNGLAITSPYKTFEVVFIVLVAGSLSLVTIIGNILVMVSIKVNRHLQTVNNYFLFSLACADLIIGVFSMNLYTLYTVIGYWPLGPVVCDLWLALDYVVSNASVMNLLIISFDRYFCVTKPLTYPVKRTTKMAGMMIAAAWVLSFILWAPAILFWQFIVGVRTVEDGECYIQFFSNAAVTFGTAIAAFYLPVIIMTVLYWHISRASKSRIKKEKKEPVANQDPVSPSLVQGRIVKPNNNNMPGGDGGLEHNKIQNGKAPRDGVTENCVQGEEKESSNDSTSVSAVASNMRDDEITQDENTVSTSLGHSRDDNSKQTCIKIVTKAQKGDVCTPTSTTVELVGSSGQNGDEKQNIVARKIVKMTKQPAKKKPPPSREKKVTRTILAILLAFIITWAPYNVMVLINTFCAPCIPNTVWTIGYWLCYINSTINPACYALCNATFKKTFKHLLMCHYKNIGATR
Description: Agonist activity at rat muscarinic M2 receptor expressed in CHO cells. It is filed as functional, cell-based.

Assay [3] has as its target Muscarinic acetylcholine receptor M3 (Rattus norvegicus, UniProt P08483). The experiment in a line: Agonist activity at rat muscarinic M3 receptor expressed in CHO cells. It is filed as functional, cell-based.
Assay [4] concerns the target T1, Muscarinic acetylcholine receptor M1. The experiment in a line: Agonist activity at rat recombinant muscarinic M1 receptor by HTS cell based assay. In kind it is functional.
In assay [5] the target is T3, Muscarinic acetylcholine receptor M5 (Rattus norvegicus, UniProt P08911).
T3 sequence (P08911 whole entry): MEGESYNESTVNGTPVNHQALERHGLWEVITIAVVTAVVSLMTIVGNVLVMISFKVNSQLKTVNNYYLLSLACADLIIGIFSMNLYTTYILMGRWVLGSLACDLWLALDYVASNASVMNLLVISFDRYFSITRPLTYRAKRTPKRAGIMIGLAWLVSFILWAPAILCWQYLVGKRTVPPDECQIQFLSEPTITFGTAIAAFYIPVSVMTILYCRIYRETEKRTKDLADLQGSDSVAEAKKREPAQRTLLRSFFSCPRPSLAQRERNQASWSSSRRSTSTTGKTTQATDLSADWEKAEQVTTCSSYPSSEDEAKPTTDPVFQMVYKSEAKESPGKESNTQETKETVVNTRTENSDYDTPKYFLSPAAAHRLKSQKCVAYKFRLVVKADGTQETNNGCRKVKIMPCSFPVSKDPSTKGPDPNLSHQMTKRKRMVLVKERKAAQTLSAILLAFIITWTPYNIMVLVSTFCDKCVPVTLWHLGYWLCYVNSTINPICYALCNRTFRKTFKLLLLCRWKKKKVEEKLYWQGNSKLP
The experiment in a line: Agonist activity at rat recombinant muscarinic M5 receptor by HTS cell based assay. In kind it is functional.

For assay [6], the target named is T4, Muscarinic acetylcholine receptor M2 (Homo sapiens, UniProt P08172).
T4 sequence (P08172 whole entry): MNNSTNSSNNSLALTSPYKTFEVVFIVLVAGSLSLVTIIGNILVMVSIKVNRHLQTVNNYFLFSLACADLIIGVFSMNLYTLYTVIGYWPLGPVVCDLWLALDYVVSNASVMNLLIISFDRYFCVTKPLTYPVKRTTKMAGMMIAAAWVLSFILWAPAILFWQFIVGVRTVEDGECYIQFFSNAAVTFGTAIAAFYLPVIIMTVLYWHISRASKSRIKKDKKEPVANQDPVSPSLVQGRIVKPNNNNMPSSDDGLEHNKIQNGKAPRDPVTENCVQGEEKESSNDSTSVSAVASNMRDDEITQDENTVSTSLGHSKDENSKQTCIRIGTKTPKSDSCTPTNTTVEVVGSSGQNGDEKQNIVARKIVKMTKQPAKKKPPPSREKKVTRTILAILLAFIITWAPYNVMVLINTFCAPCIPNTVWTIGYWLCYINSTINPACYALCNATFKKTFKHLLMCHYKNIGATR
The experiment in a line: Agonist activity at human recombinant muscarinic M2 receptor by HTS cell based assay. It is filed as functional.

Assay [7] addresses T5, Muscarinic acetylcholine receptor M5 (Homo sapiens, UniProt P08912).
T5 sequence (P08912 whole entry): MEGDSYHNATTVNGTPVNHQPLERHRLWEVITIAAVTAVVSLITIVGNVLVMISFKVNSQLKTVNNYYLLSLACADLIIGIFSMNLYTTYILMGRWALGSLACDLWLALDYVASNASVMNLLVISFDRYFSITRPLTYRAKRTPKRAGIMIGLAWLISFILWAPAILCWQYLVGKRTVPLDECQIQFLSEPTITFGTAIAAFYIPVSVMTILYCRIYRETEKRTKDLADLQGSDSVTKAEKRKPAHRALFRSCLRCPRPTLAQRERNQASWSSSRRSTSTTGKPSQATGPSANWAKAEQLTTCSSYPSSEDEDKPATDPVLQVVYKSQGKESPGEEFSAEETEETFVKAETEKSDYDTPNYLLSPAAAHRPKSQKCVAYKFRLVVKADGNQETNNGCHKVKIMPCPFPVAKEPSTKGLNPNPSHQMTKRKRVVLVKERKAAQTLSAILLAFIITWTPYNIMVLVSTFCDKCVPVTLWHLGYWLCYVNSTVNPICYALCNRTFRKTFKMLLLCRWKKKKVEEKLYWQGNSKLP
Description: Agonist activity at human recombinant muscarinic M5 receptor by HTS cell based assay. In kind it is functional.

Structures are written as SMILES.

Sequence of Muscarinic acetylcholine receptor M3 (P08483 whole entry): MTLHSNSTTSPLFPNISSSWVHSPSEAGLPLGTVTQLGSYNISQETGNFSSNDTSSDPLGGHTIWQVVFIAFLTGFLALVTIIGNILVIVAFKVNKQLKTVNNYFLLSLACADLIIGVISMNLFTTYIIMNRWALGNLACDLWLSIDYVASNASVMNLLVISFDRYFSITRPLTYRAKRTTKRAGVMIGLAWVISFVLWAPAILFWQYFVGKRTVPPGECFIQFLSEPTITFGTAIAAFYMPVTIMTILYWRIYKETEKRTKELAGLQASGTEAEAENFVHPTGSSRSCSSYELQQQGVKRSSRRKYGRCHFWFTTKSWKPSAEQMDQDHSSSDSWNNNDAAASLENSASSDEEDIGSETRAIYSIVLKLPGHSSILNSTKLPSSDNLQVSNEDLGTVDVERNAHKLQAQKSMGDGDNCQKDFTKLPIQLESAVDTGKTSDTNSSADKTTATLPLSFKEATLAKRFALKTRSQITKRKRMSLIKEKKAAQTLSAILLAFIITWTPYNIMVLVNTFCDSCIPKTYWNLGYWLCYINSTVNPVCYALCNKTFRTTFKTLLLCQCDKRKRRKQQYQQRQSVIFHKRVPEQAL

In the case of `CCOC(=O)N1CCC(N2CCC[C@@H](NC(=O)c3ccccc3C)C2)CC1`, the half-maximal effective concentration (EC50) (usually the midpoint of the concentration-response curve) is 0.11 µM in assay [1]; above 30 µM in assay [2]; above 30 µM in assay [3]; 1.3 µM in assay [4]; above 30 µM in assay [5]; above 30 µM in assay [6]. The EC50 in assay [7] is above 30 µM.
As to `CCOC(=O)N1CCC(NCCNC(=O)c2ccccc2C)CC1`, the concentration giving a half-maximal response (EC50) in assay [1] (cho) is 0.2 µM; in assay [2], above 30 µM; in assay [3], above 30 µM; in assay [4] it was 2.3 µM; in assay [5], above 30 µM; in assay [6] it was above 30 µM. Besides, the EC50 in assay [7] is above 30 µM.
